# Reference: ChEMBL document CHEMBL6182902, “Design, synthesis, and discovery of cinnamoyl amide derivatives as potent NagZ inhibitors with antibacterial activity” (Eur J Med Chem, 2025)
# The source made the active and inactive calls. The rule behind the calls is not given here.
# Tested on: Pseudomonas aeruginosa
# Assay: Antibacterial activity against Pseudomonas aeruginosa ATCC 27853 infected in female KM mouse assessed as increase in wound contraction in skin at 40 mg/kg, iv measured after 3 days
# Type: functional, organism-based
# Details: time 3.0 day
row,SMILES,Activity
1,CC(C)(O/N=C(\C(=O)N[C@@H]1C(=O)N2C(C(=O)[O-])=C(C[n+]3ccccc3)CS[C@H]12)c1csc(N)n1)C(=O)O [CEFTAZIDIME],Active; Activity Higher Than Imipenem

# Tested on: Escherichia coli
# Assay: Inhibition of recombinant N-terminal His-tagged Escherichia coli BL21 NagZ extracted from Escherichia coli BL21 using pNP-GlcNAc as substrate at 100 uM by absorbance based assay relative to control
# Details: not given
row,SMILES,inhibition [%]
1,CC1(C)[C@@H](O)CC[C@]2(C)[C@H]3C(=O)C=C4[C@H]5C[C@@](C)(C(=O)O)CC[C@]5(C)CC[C@@]4(C)[C@]3(C)CC[C@@H]12 [18alpha-GLYCYRRHETINIC ACID],69.6
2,O=C(/C=C/c1ccc(I)cc1)N[C@@H](Cc1ccc(I)cc1)C(=O)O,85.5
3,O=C(/C=C/c1ccc(O)c(O)c1)O[C@H](Cc1ccc(O)c(O)c1)C(=O)O [ROSMARINIC ACID],64.3
4,O=C(/C=C/c1c[nH]c2ccccc12)N[C@@H](Cc1ccc(I)cc1)C(=O)O,78.8
5,C=CCc1ccc(O)c(-c2cc(CC=C)ccc2O)c1 [MAGNOLOL],58.9
6,O=C(/C=C/c1ccc(Cl)c(Cl)c1)N[C@@H](Cc1ccc(I)cc1)C(=O)O,88
7,O=C(/C=C/c1ccc2ccccc2c1)N[C@@H](Cc1ccc(I)cc1)C(=O)O,87
8,CC1=C(O)C(=O)C=C2C1=CC=C1[C@@]2(C)CC[C@@]2(C)[C@@H]3C[C@](C)(C(=O)O)CC[C@]3(C)CC[C@]12C [CELASTROL],50
9,O=C(O[C@@H]1Cc2c(O)cc(O)cc2O[C@@H]1c1ccc(O)c(O)c1)c1cc(O)c(O)c(O)c1 [EPICATECHIN GALLATE],45.1

# Tested on: not listed separately
# Assay: Inhibition of recombinant N-terminal His-tagged Escherichia coli BL21 NagZ extracted from Escherichia coli BL21 using pNP-GlcNAc as substrate by absorbance based assay
# Details: not given
row,SMILES,IC50 [µM]
1,CC1(C)[C@@H](O)CC[C@]2(C)[C@H]3C(=O)C=C4[C@H]5C[C@@](C)(C(=O)O)CC[C@]5(C)CC[C@@]4(C)[C@]3(C)CC[C@@H]12 [18alpha-GLYCYRRHETINIC ACID],75.5
2,O=C(/C=C/c1ccc(I)cc1)N[C@@H](Cc1ccc(I)cc1)C(=O)O,110
3,O=C(/C=C/c1ccc(O)c(O)c1)O[C@H](Cc1ccc(O)c(O)c1)C(=O)O [ROSMARINIC ACID],56.1
4,O=C(/C=C/c1c[nH]c2ccccc12)N[C@@H](Cc1ccc(I)cc1)C(=O)O,39.6
5,C=CCc1ccc(O)c(-c2cc(CC=C)ccc2O)c1 [MAGNOLOL],88.3
6,O=C(/C=C/c1ccc(Cl)c(Cl)c1)N[C@@H](Cc1ccc(I)cc1)C(=O)O,6.4
7,O=C(/C=C/c1ccc2ccccc2c1)N[C@@H](Cc1ccc(I)cc1)C(=O)O,10.8
8,CC1=C(O)C(=O)C=C2C1=CC=C1[C@@]2(C)CC[C@@]2(C)[C@@H]3C[C@](C)(C(=O)O)CC[C@]3(C)CC[C@]12C [CELASTROL],62.8
9,O=C(O[C@@H]1Cc2c(O)cc(O)cc2O[C@@H]1c1ccc(O)c(O)c1)c1cc(O)c(O)c(O)c1 [EPICATECHIN GALLATE],70.4

# Tested on: not listed separately
# Assay: Inhibition of recombinant N-terminal His-tagged Escherichia coli BL21 NagZ extracted from Escherichia coli BL21 using different concentrations of substrate pNP-GlcNAc by 4-nitrophenolate ion release based spectrophotometric analysis
# Details: not given
row,SMILES,Ki [µM]
1,O=C(/C=C/c1ccc(I)cc1)N[C@@H](Cc1ccc(I)cc1)C(=O)O,14.3
2,O=C(/C=C/c1c[nH]c2ccccc12)N[C@@H](Cc1ccc(I)cc1)C(=O)O,15.5
3,O=C(/C=C/c1ccc(Cl)c(Cl)c1)N[C@@H](Cc1ccc(I)cc1)C(=O)O,3.3
4,O=C(/C=C/c1ccc2ccccc2c1)N[C@@H](Cc1ccc(I)cc1)C(=O)O,7.4

# Tested on: Escherichia coli
# Assay: Binding affinity to CM5 chip-immobilized recombinant N-terminal His-tagged Escherichia coli BL21 NagZ extracted from Escherichia coli BL21 assessed as relative response by SPR analysis
# Details: not given
row,SMILES,RU
1,O=C(/C=C/c1ccc(Cl)c(Cl)c1)N[C@@H](Cc1ccc(I)cc1)C(=O)O,< 68

# Tested on: not listed separately
# Assay: Binding affinity to CM5 chip-immobilized recombinant N-terminal His-tagged Escherichia coli BL21 NagZ extracted from Escherichia coli BL21 assessed as equilibrium dissociation constant by SPR analysis
# Details: not given
row,SMILES,Kd [µM]
1,O=C(/C=C/c1ccc(Cl)c(Cl)c1)N[C@@H](Cc1ccc(I)cc1)C(=O)O,42.8

# Tested on: Pseudomonas aeruginosa
# Assay: Synergistic antibacterial activity against Pseudomonas aeruginosa ATCC 27853 assessed as fractional inhibitory concentration index incubated for 18 hrs in presence of imipenem by two-dimensional microdilution checkerboard assay
# Type: functional
# Details: not given
row,SMILES,fractional inhibitory concentration index (FICI)
1,O=C(/C=C/c1ccc(Cl)c(Cl)c1)N[C@@H](Cc1ccc(I)cc1)C(=O)O,0.375

# Tested on: Pseudomonas aeruginosa
# Assay: Synergistic antibacterial activity against Pseudomonas aeruginosa ATCC 27853 assessed as fractional inhibitory concentration index incubated for 18 hrs in presence of ceftazidime by two-dimensional microdilution checkerboard assay
# Type: functional
# Details: not given
row,SMILES,fractional inhibitory concentration index (FICI)
1,O=C(/C=C/c1ccc(Cl)c(Cl)c1)N[C@@H](Cc1ccc(I)cc1)C(=O)O,0.375

# Tested on: Pseudomonas aeruginosa
# Assay: Synergistic antibacterial activity against Pseudomonas aeruginosa ATCC 27853 assessed as fold reduction in imipenem MIC incubated for 18 hrs by two-dimensional microdilution checkerboard assay
# Type: functional
# Details: not given
row,SMILES,fold change (FC)
1,O=C(/C=C/c1ccc(Cl)c(Cl)c1)N[C@@H](Cc1ccc(I)cc1)C(=O)O,>4

# Tested on: Pseudomonas aeruginosa
# Assay: Synergistic antibacterial activity against Pseudomonas aeruginosa ATCC 27853 assessed as fold reduction in ceftazidime MIC incubated for 18 hrs by two-dimensional microdilution checkerboard assay
# Type: functional
# Details: not given
row,SMILES,fold change (FC)
1,O=C(/C=C/c1ccc(Cl)c(Cl)c1)N[C@@H](Cc1ccc(I)cc1)C(=O)O,>4

# Tested on: Pseudomonas aeruginosa
# Assay: Antibacterial activity against Pseudomonas aeruginosa ATCC 27853 infected in female KM mouse assessed as epithelial tissue proliferation in skin at 40 mg/kg, iv measured after 3 days
# Type: functional, organism-based
# Details: time 3.0 day
row,SMILES,Activity
1,CC(C)(O/N=C(\C(=O)N[C@@H]1C(=O)N2C(C(=O)[O-])=C(C[n+]3ccccc3)CS[C@H]12)c1csc(N)n1)C(=O)O [CEFTAZIDIME],Active

# Tested on: Pseudomonas aeruginosa
# Assay: Synergistic antibacterial activity against Pseudomonas aeruginosa ATCC 27853 infected in female KM mouse assessed as epithelial tissue proliferation in skin at 200 ug/ml applied topically in presence of imipenem measured after 3 days
# Type: functional, organism-based
# Details: dose 200.0 µg/ml, route top, time 3.0 day
row,SMILES,Activity
1,O=C(/C=C/c1ccc(Cl)c(Cl)c1)N[C@@H](Cc1ccc(I)cc1)C(=O)O,Active

# Tested on: Pseudomonas aeruginosa
# Assay: Synergistic antibacterial activity against Pseudomonas aeruginosa ATCC 27853 infected in female KM mouse assessed as exudate formation on wound surface at 200 ug/ml applied topically in presence of imipenem measured after 3 days
# Type: functional, organism-based
# Details: dose 200.0 µg/ml, route top, time 3.0 day
row,SMILES,Activity
1,O=C(/C=C/c1ccc(Cl)c(Cl)c1)N[C@@H](Cc1ccc(I)cc1)C(=O)O,Active

# Tested on: Pseudomonas aeruginosa
# Assay: Antibacterial activity against Pseudomonas aeruginosa ATCC 27853 infected in female KM mouse assessed as wound healing rate in skin at 40 mg/kg, iv measured after 3 days (reference value: 36.2 %)
# Type: functional
# Details: time 3 day
row,SMILES,Activity [%]
1,CC(C)(O/N=C(\C(=O)N[C@@H]1C(=O)N2C(C(=O)[O-])=C(C[n+]3ccccc3)CS[C@H]12)c1csc(N)n1)C(=O)O [CEFTAZIDIME],62.2

# Tested on: Pseudomonas aeruginosa
# Assay: Synergistic antibacterial activity against Pseudomonas aeruginosa ATCC 27853 infected in female KM mouse assessed as wound healing rate in skin at 200 ug/ml applied topically measured after 3 days in presence of imipenem (reference value: 36.2 %)
# Type: functional
# Details: dose 200 µg/ml; route top; time 3 day
row,SMILES,Activity [%]
1,O=C(/C=C/c1ccc(Cl)c(Cl)c1)N[C@@H](Cc1ccc(I)cc1)C(=O)O,69.4

# Tested on: Pseudomonas aeruginosa
# Assay: Synergistic antibacterial activity against Pseudomonas aeruginosa ATCC 27853 infected in female KM mouse assessed as wound healing rate in skin at 200 ug/ml applied topically measured after 3 days in presence of ceftazidime (reference value: 36.2 %)
# Type: functional
# Details: dose 200 µg/ml; route top; time 3 day
row,SMILES,Activity [%]
1,O=C(/C=C/c1ccc(Cl)c(Cl)c1)N[C@@H](Cc1ccc(I)cc1)C(=O)O,73.2

# Tested on: Pseudomonas aeruginosa
# Assay: Synergistic antibacterial activity against Pseudomonas aeruginosa ATCC 27853 infected in female KM mouse assessed as increase in wound contraction in skin at 200 ug/ml applied topically measured after 3 days in presence of ceftazidime
# Type: functional, organism-based
# Details: dose 200.0 µg/ml, route top, time 3.0 day
row,SMILES,Activity
1,O=C(/C=C/c1ccc(Cl)c(Cl)c1)N[C@@H](Cc1ccc(I)cc1)C(=O)O,Active; Activity Higher Than Imipenem And Compound-Ceftazidime Combination

# Tested on: Pseudomonas aeruginosa
# Assay: Synergistic antibacterial activity against Pseudomonas aeruginosa ATCC 27853 infected in female KM mouse assessed as wound healing rate in skin at 200 ug/ml applied topically measured after 10 days in presence of imipenem relative to control
# Type: functional
# Details: dose 200 µg/ml; route top; time 10 day
row,SMILES,Activity [%]
1,O=C(/C=C/c1ccc(Cl)c(Cl)c1)N[C@@H](Cc1ccc(I)cc1)C(=O)O,93.9

# Tested on: Pseudomonas aeruginosa
# Assay: Synergistic antibacterial activity against Pseudomonas aeruginosa ATCC 27853 infected in female KM mouse assessed as wound healing rate in skin at 200 ug/ml applied topically measured after 10 days in presence of ceftazidime relative to control
# Type: functional
# Details: dose 200 µg/ml; route top; time 10 day
row,SMILES,Activity [%]
1,O=C(/C=C/c1ccc(Cl)c(Cl)c1)N[C@@H](Cc1ccc(I)cc1)C(=O)O,95.7
